Here are results for 16 compounds from patent US12667101B2, “Picolinamide derivatives useful as agricultural fungicides” (GLOBACHEM NV, priority 2019, dated 2026).

Converted amounts (≈) assume the structure as drawn.

By EC50 is commonly meant the concentration giving half of the maximal effect.

The subject of this assay is Zymoseptoria tritici. As to the kind of experiment: Fungicidal activity screen in amended agar, 96 well plates. The assay is classed as cell-based. The conditions noted are these: 168 h, 1% potato dextrose agar amended to 20, 2, 0.2 and 0.02 ppm, 10,000 spores/mL, 18° C., assessed after 7 days, read-out: Zymoseptoria (EC50 ranking of fungal growth vs DMSO controls). The protocol:
Compounds were screened in 96 well plates with 10 compounds per plate. Each compound was screened using agar amended to 20, 2, 0.2 and 0.02 ppm of the test material. Proline at 50 and 10 ppm and 0.2% DMSO were used respectively as positive and negative controls. Each test concentration and standard were tested twice on a plate.
Compounds were screened against Zymoseptoria tritici. The agar used in the test was 1% potato dextrose agar. Sufficient spores were added to the appropriate agar to give 10,000 spores/mL agar.
A ×10 stock solution in 2% DMSO was produced for each dose i.e. 200, 20, 2 and 0.2 ppm, and 10 μl of this added to the appropriate wells on the plate. An equivalent amount of 2% DMSO and Proline stock at 500 and 100 ppm were added for the controls. To each well, 90 μl of the appropriate agar spore suspension was added to give the final well concentrations outlined in the first paragraph.
Plates were incubated at room temperature (18° C.) and assessed after 7 days.
The amount of fungal growth in each well was compared to the DMSO controls and scored according to the following key: • A—EC50<2 ppm • B—2≤EC50<20 • C—EC50≥20 • D—No activity detected at the highest dose tested • NT—Not tested
On to `COc1ccnc2c(=O)n(-c3ccc4nc(N(C)c5cccnc5Cl)ccc4c3)c(=S)oc12` [Example 46, 3-(2-((2-chloropyridin-3-yl)(methyl)amino)quinolin-6-yl)-8-methoxy-2-thioxo-2,3-dihydro-4H-pyrido[2,3-e][1,3]oxazin-4-one], for which the EC50 was no less than 20 µg/mL.
With `COc1ccnc(C(=O)Nc2ccc3nc(OC(C)C)ccc3c2)c1OC(C)=O` [Example 47, 2-((2-isopropoxyquinolin-6-yl)carbamoyl)-4-methoxypyridin-3-yl acetate], the concentration for a half-maximal effect (EC50) is less than 2 µg/mL.
With `CCCCCc1cc(Oc2ccc(F)cc2)nc2ccc(NC(=O)c3nccc(OC)c3OC(C)=O)cc12` [Example 31, 2-((2-(4-fluorophenoxy)-4-pentylquinolin-6-yl)carbamoyl)-4-methoxypyridin-3-yl acetate], the EC50 is no less than 20 µg/mL.
In the case of `COc1ccnc(C(=O)Nc2ccc3cc(-c4ccccc4)ccc3n2)c1OC(C)=O` [Example 18, 4-methoxy-2-((6-phenylquinolin-2-yl)carbamoyl)pyridin-3-yl acetate], the EC50 fell in the range of 2 to 20 µg/mL.
Take `COc1ccnc(C(=O)Nc2ccc3nc(Sc4ccccc4Cl)ccc3c2)c1O` [Example 26, N-(2-((2-chlorophenyl)thio)quinolin-6-yl)-3-hydroxy-4-methoxypicolinamide]: the EC50 was less than 2 µg/mL.
`CCCCOc1ccc2cc(NC(=O)c3nccc(OC)c3O)ccc2n1` [Example 4, N-(2-butoxyquinolin-6-yl)-3-hydroxy-4-methoxypicolinamide]: the 50% effective concentration (EC50) is 2 to 20 µg/mL (≈ 5.44 to 54.4 µM).
For the compound `CCCOc1ccc2cc(NC(=O)c3nccc(OC)c3O)ccc2n1` [Example 3, 3-hydroxy-4-methoxy-N-(2-propoxyquinolin-6-yl)picolinamide], the EC50 is less than 2 µg/mL.
Consider `COc1ccnc2c(=O)n(-c3ccc4nc(Oc5cccnc5Cl)ccc4c3)c(=S)oc12` [Example 44, 3-(2-((2-chloropyridin-3-yl)oxy)quinolin-6-yl)-8-methoxy-2-thioxo-2,3-dihydro-4H-pyrido[2,3-e][1,3]oxazin-4-one], for which the EC50 is no less than 20 µg/mL.
`COc1ccnc(C(=O)Nc2ccc3nc(OC(C)C(C)C)ccc3c2)c1O` (stereo not shown) [Example 6, 3-hydroxy-4-methoxy-N-(2-((3-methylbutan-2-yl)oxy)quinolin-6-yl)picolinamide]: the EC50 is less than 2 µg/mL.
Regarding `COc1ccnc(C(=O)Nc2ccc3nc(Oc4ccccc4Cl)ccc3c2)c1OC(C)=O` [Example 30, 2-((2-(2-chlorophenoxy)quinolin-6-yl)carbamoyl)-4-methoxypyridin-3-yl acetate], the EC50 is 2 to 20 µg/mL.
`CCOc1ccc2cc(NC(=O)c3nccc(OC)c3O)ccc2n1` [Example 1, N-(2-ethoxyquinolin-6-yl)-3-hydroxy-4-methoxypicolinamide]: the EC50 lay within 2 to 20 µg/mL (≈ 5.89 to 58.9 µM).
As for `COc1ccnc2c(=O)n(-c3ccc4nc(Sc5cccnc5Cl)ccc4c3)c(=S)oc12` [Example 45, 3-(2-((2-chloropyridin-3-yl)thio)quinolin-6-yl)-8-methoxy-2-thioxo-2,3-dihydro-4H-pyrido[2,3-e][1,3]oxazin-4-one], the EC50 was no less than 20 µg/mL.
In the case of `COc1ccnc(C(=O)Nc2ccc3ncc(Cc4ccccc4)cc3c2)c1O` [Example 13, N-(3-benzylquinolin-6-yl)-3-hydroxy-4-methoxypicolinamide] it was no less than 20 µg/mL.
In the case of `CCCCCc1cc(Oc2ccc(F)cc2)nc2ccc(NC(=O)c3nccc(OC)c3O)cc12` [Example 21, N-(2-(4-fluorophenoxy)-4-pentylquinolin-6-yl)-3-hydroxy-4-methoxypicolinamide], the concentration giving a half-maximal response (EC50) was no less than 20 µg/mL.
Regarding `COc1ccnc2c(=O)n(-c3ccc4nc(Sc5ccc(F)cc5)ccc4c3)c(=S)oc12` [Example 37, 3-(2-((4-fluorophenyl)thio)quinolin-6-yl)-8-methoxy-2-thioxo-2,3-dihydro-4H-pyrido[2,3-e][1,3]oxazin-4-one], the EC50 was less than 2 µg/mL.
In the case of `COc1ccnc(C(=O)Nc2ccc3cc(-c4ccccc4)ccc3n2)c1O` [Example 16, 3-hydroxy-4-methoxy-N-(6-phenylquinolin-2-yl)picolinamide] it was 2 to 20 µg/mL (≈ 5.39 to 53.9 µM).
